According to patent publication US20090258860A1, “XANTHINE DERIVATIVES FOR THE TREATMENT OF VASCULAR DEPRESSION” (Duke University, priority 2006, published 2009):

What was measured:
[1] = system: elderly patients with a diagnosis of vascular depression; experiment: Case studies of pentoxifylline and propentofylline treatment of vascular depression (HDRS); assay type: in vivo, human; details: oral monotherapy
Procedure: Patients are evaluated at baseline and at regular intervals for a period of months. They are evaluated according to the Hamilton Depressive Rating Scale (HDRS; Hamilton, J. Neurol. Neurosurg. Psychiatry 23:56-62 (1960)). Patients are excluded if their HDRS is ≦15.
In one group, pentoxifylline is administered orally in a dose of 400 mg three times a day. In another group, propentofylline is administered orally in a dose of 200 mg three times a day.

[2] = system: elderly patients with a diagnosis of vascular depression currently being treated with an SSRI and/or SNRI; experiment: Case studies of pentoxifylline and propentofylline add-on treatment of vascular depression (HDRS); assay type: in vivo, human; details: add-on to existing SSRI and/or SNRI
Procedure: These case studies investigate the effects of pentoxifylline and propentofylline in one or more elderly patients (>60 years of age) with a diagnosis of vascular depression and who are currently being treated with an SSRI and/or SNRI.
Patients are evaluated at baseline and at regular intervals for a period of months. They are evaluated according to the Hamilton Depressive Rating Scale (HDRS; Hamilton, J. Neurol. Neurosurg. Psychiatry 23:56-62 (1960)).
In one group, pentoxifylline is administered orally in a dose of 400 mg three times a day to augment their SSRI and/or SNRI treatment regimen. In another group, propentofylline is administered orally in a dose of 200 mg three times a day to augment their SSRI and/or SNRI treatment regimen.

[3] = system: patients with multi-infarct dementia; details: cited from earlier work
[4] = in vivo; cited from earlier work

SMILES	tolerability [1]	tolerability [2]	intellectual and cognitive function [3]	cerebral blood flow [4]
CCCn1cnc2c1c(=O)n(CCCCC(C)=O)c(=O)n2C [propentofylline, 1-(5-oxohexyl)-3-methyl-7-n-propylxanthine]	well tolerated	well tolerated	–	–
CC(=O)CCCCn1c(=O)c2c(ncn2C)n(C)c1=O [pentoxifylline, 1-(5-oxohexyl)-3,7-dimethylxanthine]	well tolerated	well tolerated	improve	–
CC(O)CCCCn1c(=O)c2c(ncn2C)n(C)c1=O (stereo not drawn) [1(5-hydroxyhexyl)-3,7-dimethylxanthine]	–	–	–	increasing cerebral blood flow
